What all share (format): cell-based
One test concerns Balb/c 3T3 fibroblasts. Put plainly: Norfloxacin 3T3 phototoxicity test with or without DHQ treatment (Neutral Red uptake). Conditions: for Photoprotective effect against norfloxacin phototoxicity: increasing concentrations in treatment medium, UVA. As for the experimental part:
The phototoprotective potential of Dihydroquercetin was assessed using a method based on Norfloxacin phototoxicity test on fibroblasts […]. […] The study was aimed at evaluating the photoprotective potential of one test item, dihydroquercetin, against the deleterious effects of UVA exposure in presence of phototoxic substances such as Norfloxacin or chlorpromazin. Briefly, Balb/c 3T3 fibroblasts were maintained in culture for 48 h for formation of monolayers. Norfloxacin 3T3 phototoxicity test was performed in presence or absence of DHQ treatment in different conditions. After another 24 h incubation period, cell viability was determined by Neutral Red uptake. For each condition, cell viability was expressed as percentage relative to untreated solvent controls. Then the dose-response curves (at the EC50 level) obtained for Norfloxacin with or without DHQ treatment was compared to assess DHQ photoprotective potential.

A further test relates to NIH-3T3 fibroblasts. Put plainly: Chlorpromazine (CPZ)-induced cell phototoxicity under UVA, protective effect. From the text:
Chlorpromazine (CPZ) is a neuroleptic drug widely used in medicine because of its tranquilizing and antipsychotic properties. CPZ often causes side effects including cutaneous photosensitization and ocular damage.

Test [1] has as its system human neutrophils. Put plainly: Polymorphonuclear neutrophils oxidative burst, ROS production by chemiluminescence (PMA activation). As to conditions: neutrophils primed with TNF-α, activation by 100 ng/ml PMA; luminol chemiluminescence; FIG. 5. As for the experimental part:
ROS production is measured using a chemiluminescence standard procedure: briefly, one hundred microliters of human neutrophils (4×10^6/mL) were primed with TNF-α at 37° C. for 25 minutes. 100 μL luminol (1 μM final concentration) and HRP (62.5 U/mL final concentration) in HBSS were added, and 150-μL aliquots were transferred to a prewarmed 96-well luminometer plate. Light emission was recorded by a Berthold MicroLumat Plus luminometer (Berthold Technologies, Hartfordshire, United Kingdom) (data output is in relative light units per second)

Test [2] relates to human neutrophils. Put plainly: Neutrophils degranulation assessed by myeloperoxidase (MPO) release, fMLP stimulation, MPO enzyme immunoassay. Conditions: fMLP 45 minutes at 37° C. As for the experimental part: Neutrophils were stimulated with formyl-methionyl-leucyl-phenylalanine for 45 minutes at 37° C. MPO released from neutrophils were assayed by using an MPO enzyme immunoassay. [table]

In brackets after ≈: the same amount, converted by molar mass.

The text below walks through data of patent US20210113518A1, “Composition And Use Thereof Against Drugs Induced Phototoxicity” (AC BIOSCIENCE SA, priority 2018, published 2021).

`Nc1ccc(C(=O)O)cc1` [PABA, para-aminobenzoic acid]: the “Photoprotective effect against norfloxacin phototoxicity” value in the test with Balb/c 3T3 fibroblasts is on record as “no effect”.

One may read the IC50 as the point on the concentration scale where inhibition reaches its midpoint. Read a low IC50 as greater potency in that assay. As for `CN(C)CCCN1c2ccccc2Sc2ccc(Cl)cc21` [CPZ, Chlorpromazine, reference compound], the half-maximal inhibitory concentration (IC50) in the test on NIH-3T3 fibroblasts (Mus musculus, NIH3T3, light or radiation study, control experiment (no treatment), UVA) worked out at 0.33 µg/mL (≈ 1.03 µM).

`O=C1c2c(O)cc(O)cc2O[C@H](c2ccc(O)c(O)c2)[C@H]1O` [DHQ, Dihydroquercetin]: in the test with Balb/c 3T3 fibroblasts, the “Photoprotective effect against norfloxacin phototoxicity” value is “Dose-dependent photoprotective effect”. Moreover, the “Protection against phototoxicity induced by chlorpromazine+UVA” value in the test on NIH-3T3 fibroblasts (NIH-3T3 fibroblasts, FIG. 4) was “efficiently protects”. In addition, in the test with human neutrophils [1], the “Effect on reactive oxygen species (ROS) production” value is “Inhibitory effect”.

Turning to `CCn1cc(C(=O)O)c(=O)c2cc(F)c(N3CCNCC3)cc21` [NFX, norfloxacin], the EC50 in the test on Balb/c 3T3 fibroblasts (Mus musculus, BALB/c3T3, light or radiation study, No DHQ treatment, UVA exposure, read-out: NFX EC 50) was found to be 55 µg/mL (≈ 172 µM).

As for `CC(C)=CCC[C@](C)(O)C1CC=C(C)CC1` (stereo partly shown) [Bisabolol], the MPO release in the test with human neutrophils [2] (Bisabolol 20 μM) turned out to be 810 U/mL; in the test on human neutrophils [2] (Bisabolol 40 μM), 500 U/mL; with human neutrophils [2] (Bisabolol 100 μM) it was 250 U/mL; with human neutrophils [2] (Bisabolol 200 μM), 248 U/mL.
